# Source: ChEMBL document CHEMBL1201862, “PubChem BioAssay data set” (2004)
# The source made the active and inactive calls.
# Experiments:
# Bcl-2-like protein 10 = biological target: T1, Bcl-2-like protein 10 (Homo sapiens, UniProt Q9HD36); assay: displacers of TR3 peptide from Bcl-B, primary screen, selectivity assay for Bfl-1 inhibitor project, biochemical, fluorescence polarization, FITC-TR3 peptide (AID 748);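 note: fluorescence polarization from a fluorescein-labelled TR3 peptide binding purified Bcl-B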
# T1 sequence (Q9HD36 whole entry): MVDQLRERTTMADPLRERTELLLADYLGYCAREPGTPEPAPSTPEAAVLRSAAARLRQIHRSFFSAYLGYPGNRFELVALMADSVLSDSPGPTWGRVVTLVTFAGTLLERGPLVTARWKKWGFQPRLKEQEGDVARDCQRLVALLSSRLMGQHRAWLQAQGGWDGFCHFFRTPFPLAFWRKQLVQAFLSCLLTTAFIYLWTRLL
# Estrogen receptor beta [1] = biological target: T2, Estrogen receptor beta (Homo sapiens, UniProt Q92731);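 note: recombinant ER-beta bound to coactivator SRC1 peptide in presence of estradiol agonist; inhibitors block coactivator peptide binding and lower the FRET signal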
# Estrogen receptor beta [2] = biological target: T2, Estrogen receptor beta; assay: ERβ–SRC-3 coactivator interaction inhibitors, confirmation, orthogonal assay, biochemical, ELISA, streptavidin-HRP readout (AID 1060)
# [3] = Luminescent dose response cell-based high throughput screening assay for inhibitors of the Janus kinase 2 mutant JAK2V617F. [Related pubchem assays: 1446 (Primary screen.), 1521 (Confirmation assay.), 1486 (Counter screen.)]; type: functional
# [4] = HEp-2 cell cytotoxicity, dose response, cytotoxicity control for RSV inhibitor project, HTS (AID 2410); type: functional; conditions: human respiratory syncytial virus
# cells [5] = assay: cells
# [6] = biological target: Luciferin 4-monooxygenase (Photinus pyralis, UniProt P08659); assay: Counter Screen for Luciferase-based Assay Positives. [Related pubchem assays: 620, 618, 411 ]
# [7] = Luminescence Cell-Based Dose Response HTS to Identify Inhibitors of 5'UTR Stem-Loop Driven Prion Protein mRNA Translation in H4 Neuroglioblastoma Cells. [Related pubchem assays: 1827 (Project Summary), 1813 (Primary HTS)]; type: functional
# [8] = inhibitors of SNCA 5'UTR-driven reporter translation, confirmation, H4 neuroglioma cells, luminescence (AID 1988); type: functional, cell-based
# HT-1080 = assay: cytotoxicity in HT1080 fibrosarcoma cells, cell-based, fluorescence readout (AID 620); type: functional; conditions: Homo sapiens
# [9] = M. tuberculosis H37Rv growth inhibitors, H37Rv strain (AID 1626); type: functional
# [10] = microbe, parasite or virus in culture; type: functional; conditions: Mycobacterium tuberculosis
# [11] = biological target: T3, Microphthalmia-associated transcription factor (Homo sapiens, UniProt O75030); assay: TRPM1 promoter luciferase signal decrease, dose response, MITF inhibitor project, cell-based, SK-MEL-5, cherry-picked, set 3 (AID 493073); type: functional
# T3 sequence (O75030 whole entry): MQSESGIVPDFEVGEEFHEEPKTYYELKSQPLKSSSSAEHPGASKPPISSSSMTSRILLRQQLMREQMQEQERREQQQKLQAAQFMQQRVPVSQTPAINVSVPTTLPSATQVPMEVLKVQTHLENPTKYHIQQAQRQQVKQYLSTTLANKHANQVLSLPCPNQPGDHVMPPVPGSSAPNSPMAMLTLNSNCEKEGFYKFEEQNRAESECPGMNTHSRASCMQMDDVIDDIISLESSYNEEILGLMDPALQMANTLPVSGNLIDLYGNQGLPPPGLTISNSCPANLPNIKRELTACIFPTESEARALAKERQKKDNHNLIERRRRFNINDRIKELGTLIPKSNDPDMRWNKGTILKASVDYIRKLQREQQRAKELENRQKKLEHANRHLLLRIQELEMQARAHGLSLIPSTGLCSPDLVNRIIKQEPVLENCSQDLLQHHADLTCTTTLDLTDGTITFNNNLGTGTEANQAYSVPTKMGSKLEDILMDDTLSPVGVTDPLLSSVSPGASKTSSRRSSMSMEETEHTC
# [12] = biological target: T4, Replicative DNA helicase DnaB (Mycobacterium tuberculosis, UniProt P9WMR3); assay: DnaB intein splicing inhibitors, dose response, biochemical, cell-free fluorescence (AID 449749); type: functional
# T4 sequence (P9WMR3 whole entry): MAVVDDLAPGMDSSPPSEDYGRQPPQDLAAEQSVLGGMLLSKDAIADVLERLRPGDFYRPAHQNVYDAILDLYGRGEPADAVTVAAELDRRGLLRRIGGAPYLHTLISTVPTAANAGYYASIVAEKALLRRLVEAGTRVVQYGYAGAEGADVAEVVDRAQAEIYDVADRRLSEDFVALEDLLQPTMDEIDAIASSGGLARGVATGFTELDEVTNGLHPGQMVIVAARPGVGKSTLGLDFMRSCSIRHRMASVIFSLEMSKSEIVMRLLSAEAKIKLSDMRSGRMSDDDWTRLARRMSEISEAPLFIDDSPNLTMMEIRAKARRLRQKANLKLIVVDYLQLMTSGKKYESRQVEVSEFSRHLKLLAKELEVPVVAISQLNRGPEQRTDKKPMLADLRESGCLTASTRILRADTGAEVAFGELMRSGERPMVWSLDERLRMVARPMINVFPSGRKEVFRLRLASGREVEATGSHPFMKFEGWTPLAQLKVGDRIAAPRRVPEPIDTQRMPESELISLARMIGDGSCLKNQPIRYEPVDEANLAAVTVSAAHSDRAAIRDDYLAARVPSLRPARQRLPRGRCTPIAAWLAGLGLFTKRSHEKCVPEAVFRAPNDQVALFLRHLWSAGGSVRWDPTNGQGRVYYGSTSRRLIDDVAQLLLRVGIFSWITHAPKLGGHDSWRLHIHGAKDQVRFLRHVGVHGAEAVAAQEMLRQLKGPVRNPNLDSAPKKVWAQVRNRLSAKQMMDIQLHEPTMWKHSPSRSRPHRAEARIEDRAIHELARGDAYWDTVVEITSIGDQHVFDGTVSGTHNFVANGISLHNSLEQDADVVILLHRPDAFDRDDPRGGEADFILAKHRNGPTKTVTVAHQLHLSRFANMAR
# Protein RecA = biological target: T5, Protein RecA (Mycobacterium tuberculosis, UniProt P9WHJ3); assay: Fluorescence Cell-Free Homogeneous Dose Retest to Identify Inhibitors of RecA-Intein Splicing Activity. [Related pubchem assays (depositor defined):AID2097, AID2223, AID489010, AID492950]; type: functional
# T5 sequence (P9WHJ3 whole entry): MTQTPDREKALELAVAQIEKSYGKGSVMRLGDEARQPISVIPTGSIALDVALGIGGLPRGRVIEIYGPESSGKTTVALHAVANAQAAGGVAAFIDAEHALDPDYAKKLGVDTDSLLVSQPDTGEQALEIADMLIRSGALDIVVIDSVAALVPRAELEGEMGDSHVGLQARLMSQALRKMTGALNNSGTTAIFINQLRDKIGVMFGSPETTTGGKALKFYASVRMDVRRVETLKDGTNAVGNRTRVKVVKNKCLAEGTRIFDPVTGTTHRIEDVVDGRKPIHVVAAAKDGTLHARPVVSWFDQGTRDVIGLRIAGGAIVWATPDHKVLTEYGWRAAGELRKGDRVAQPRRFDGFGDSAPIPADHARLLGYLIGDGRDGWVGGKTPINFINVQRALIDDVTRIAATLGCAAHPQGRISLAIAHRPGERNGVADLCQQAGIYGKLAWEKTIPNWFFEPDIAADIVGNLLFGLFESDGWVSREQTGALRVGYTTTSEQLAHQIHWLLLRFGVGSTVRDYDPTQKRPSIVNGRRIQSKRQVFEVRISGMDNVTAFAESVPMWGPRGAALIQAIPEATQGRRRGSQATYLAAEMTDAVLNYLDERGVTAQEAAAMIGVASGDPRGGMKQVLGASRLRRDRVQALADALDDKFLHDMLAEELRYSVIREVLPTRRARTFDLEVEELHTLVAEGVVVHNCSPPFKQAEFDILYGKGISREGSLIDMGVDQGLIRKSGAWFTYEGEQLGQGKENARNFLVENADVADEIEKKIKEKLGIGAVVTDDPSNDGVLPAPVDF
# [13] = inhibitors of intracellular T. cruzi replication, confirmation, NIH3T3 host cells, beta-gal luminescence (AID 2044); type: functional, cell-based;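 note: intracellular parasites grown in NIH/3T3 mouse fibroblasts as host cells; luminescent beta-galactosidase reporter signal from transgenic T. cruzi replicating inside host cells; inhibitors lower the luminescence signal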
# [14] = cytotoxicity toward NIH3T3 fibroblasts, dose response, counter-screen, cell-based, ATP luminescence, mouse fibroblasts (AID 2010); type: functional;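 note: cells exposed to compound for about 90 hours before reading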
# cells [15] = assay: cells; remark: listed apart in the source
# Vero = assay: host cell cytotoxicity of antiviral hits, dose response, cytotoxicity control for West Nile virus antiviral project, secondary assay (AID 1650); type: functional; conditions: Chlorocebus sabaeus
# [16] = biological target: T6, Corticotropin-releasing factor receptor 2/Corticotropin-releasing factor-binding protein (Homo sapiens, UniProt P24387+Q13324); assay: Dose Response confirmation of uHTS hits for small molecule antagonists of the CRF-binding protein and CRF-R2 receptor complex.; type: functional; conditions: read-out: IC50_Mean
# T6 sequence (Q13324 whole entry): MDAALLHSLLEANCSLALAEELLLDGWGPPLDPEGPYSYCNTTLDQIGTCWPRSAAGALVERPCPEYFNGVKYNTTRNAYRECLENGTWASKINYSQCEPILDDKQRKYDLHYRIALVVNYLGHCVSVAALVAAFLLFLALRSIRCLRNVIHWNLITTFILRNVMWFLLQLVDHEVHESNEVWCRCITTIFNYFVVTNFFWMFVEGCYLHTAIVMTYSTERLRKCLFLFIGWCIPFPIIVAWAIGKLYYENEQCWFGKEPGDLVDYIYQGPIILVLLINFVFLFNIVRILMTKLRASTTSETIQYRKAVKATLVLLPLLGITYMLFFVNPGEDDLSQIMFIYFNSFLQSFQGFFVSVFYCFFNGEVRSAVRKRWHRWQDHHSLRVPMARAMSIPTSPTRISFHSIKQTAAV
# T6 sequence (P24387 whole entry): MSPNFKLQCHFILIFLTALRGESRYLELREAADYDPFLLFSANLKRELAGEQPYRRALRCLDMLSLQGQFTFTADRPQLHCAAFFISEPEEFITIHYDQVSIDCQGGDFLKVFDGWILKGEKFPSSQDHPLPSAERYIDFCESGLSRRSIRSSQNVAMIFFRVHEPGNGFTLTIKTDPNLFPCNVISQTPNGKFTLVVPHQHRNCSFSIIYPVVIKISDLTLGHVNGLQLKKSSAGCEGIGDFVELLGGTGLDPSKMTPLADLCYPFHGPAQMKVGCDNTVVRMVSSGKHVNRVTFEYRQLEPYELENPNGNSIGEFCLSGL
# [17] = biological target: T6, Corticotropin-releasing factor receptor 2/Corticotropin-releasing factor-binding protein; assay: activators of CRF receptor 2 with binding protein – uHTS hits, confirmation (AID 602473); type: functional; conditions: read-out: EC50_Mean
# [18] = biological target: Voltage-gated inwardly rectifying potassium channel KCNH2 (Homo sapiens, UniProt Q12809); assay: hERG protection from proarrhythmic block, potency, dose response, cell-based, thallium flux (AID 2121); type: ADME
# Voltage-gated inwardly rectifying potassium channel KCNH2, sequence (Q12809 whole entry): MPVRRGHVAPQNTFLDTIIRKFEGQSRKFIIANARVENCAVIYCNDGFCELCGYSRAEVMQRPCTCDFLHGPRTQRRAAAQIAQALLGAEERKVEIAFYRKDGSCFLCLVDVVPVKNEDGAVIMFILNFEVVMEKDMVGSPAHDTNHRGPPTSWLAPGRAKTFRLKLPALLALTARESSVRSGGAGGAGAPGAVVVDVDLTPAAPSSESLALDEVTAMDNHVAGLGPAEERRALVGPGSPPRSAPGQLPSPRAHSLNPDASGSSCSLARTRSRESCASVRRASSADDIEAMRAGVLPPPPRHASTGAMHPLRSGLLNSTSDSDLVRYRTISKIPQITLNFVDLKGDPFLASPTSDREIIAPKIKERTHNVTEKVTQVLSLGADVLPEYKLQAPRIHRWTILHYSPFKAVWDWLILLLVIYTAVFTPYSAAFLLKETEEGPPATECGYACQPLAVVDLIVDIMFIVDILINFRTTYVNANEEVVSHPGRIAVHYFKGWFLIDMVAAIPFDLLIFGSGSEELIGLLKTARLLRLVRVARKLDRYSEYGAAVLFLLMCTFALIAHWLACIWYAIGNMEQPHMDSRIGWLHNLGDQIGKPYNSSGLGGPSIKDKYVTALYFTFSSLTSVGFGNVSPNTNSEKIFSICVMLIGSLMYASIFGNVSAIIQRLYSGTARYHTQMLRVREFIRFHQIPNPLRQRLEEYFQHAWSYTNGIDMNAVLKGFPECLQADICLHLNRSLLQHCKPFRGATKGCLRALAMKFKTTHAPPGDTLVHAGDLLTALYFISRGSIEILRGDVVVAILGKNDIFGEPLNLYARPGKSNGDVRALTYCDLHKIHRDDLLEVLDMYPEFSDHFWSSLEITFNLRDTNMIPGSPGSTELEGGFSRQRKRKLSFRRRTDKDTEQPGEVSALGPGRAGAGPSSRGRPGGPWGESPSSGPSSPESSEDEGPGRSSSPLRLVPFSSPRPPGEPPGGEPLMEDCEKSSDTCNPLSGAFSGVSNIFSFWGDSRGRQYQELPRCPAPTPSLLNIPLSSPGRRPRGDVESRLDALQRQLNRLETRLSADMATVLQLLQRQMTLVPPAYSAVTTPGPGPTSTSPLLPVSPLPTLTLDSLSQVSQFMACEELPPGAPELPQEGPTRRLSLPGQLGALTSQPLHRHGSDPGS
# T2 sequence (Q92731 whole entry): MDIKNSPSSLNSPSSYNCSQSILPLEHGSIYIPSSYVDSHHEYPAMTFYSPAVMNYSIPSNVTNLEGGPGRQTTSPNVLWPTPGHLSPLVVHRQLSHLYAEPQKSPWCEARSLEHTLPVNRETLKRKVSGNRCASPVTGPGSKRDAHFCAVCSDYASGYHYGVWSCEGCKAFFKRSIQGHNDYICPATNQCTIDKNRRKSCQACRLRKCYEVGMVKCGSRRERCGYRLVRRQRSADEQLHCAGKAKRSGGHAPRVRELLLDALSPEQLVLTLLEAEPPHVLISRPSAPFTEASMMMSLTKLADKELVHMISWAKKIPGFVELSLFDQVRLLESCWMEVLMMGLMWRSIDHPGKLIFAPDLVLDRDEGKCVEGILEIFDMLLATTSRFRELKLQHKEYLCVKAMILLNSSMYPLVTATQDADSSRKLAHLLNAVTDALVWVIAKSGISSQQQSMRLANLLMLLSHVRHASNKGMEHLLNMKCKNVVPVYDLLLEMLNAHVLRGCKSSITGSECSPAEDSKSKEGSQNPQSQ
# Luciferin 4-monooxygenase, sequence (P08659 whole entry): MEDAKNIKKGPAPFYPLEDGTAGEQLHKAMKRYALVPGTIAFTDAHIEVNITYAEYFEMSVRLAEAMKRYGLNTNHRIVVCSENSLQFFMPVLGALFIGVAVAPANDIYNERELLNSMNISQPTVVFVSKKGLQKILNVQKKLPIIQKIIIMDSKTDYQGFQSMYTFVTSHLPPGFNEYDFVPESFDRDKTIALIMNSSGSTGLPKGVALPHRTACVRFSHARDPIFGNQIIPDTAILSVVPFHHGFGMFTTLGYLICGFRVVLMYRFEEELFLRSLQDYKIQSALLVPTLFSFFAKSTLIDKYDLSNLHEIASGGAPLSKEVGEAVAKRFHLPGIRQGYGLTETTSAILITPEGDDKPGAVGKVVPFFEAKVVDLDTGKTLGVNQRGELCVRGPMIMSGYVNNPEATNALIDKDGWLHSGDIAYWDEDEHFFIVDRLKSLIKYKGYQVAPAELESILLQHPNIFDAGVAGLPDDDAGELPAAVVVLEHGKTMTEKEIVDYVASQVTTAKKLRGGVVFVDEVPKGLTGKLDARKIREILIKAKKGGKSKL
compound,measurement,setting,value
CCS(=O)(=O)N1Cc2ccccc2CC1C(=O)N1CCN(c2cccc(C)c2C)CC1 (centres undefined),IC50,Bcl-2-like protein 10,80 µM (inactive)
same,IC50,Estrogen receptor beta [1],> 50 µM (not active)
same,IC50,Estrogen receptor beta [2],2.96 µM (not active)
O=c1cnn([C@@H]2O[C@H](CO)[C@@H](O)[C@H]2O)c(=O)[nH]1 [6-AZAURIDINE],IC50,[3],2.32 µM (active)
same,CC50,[4],11.9 µM (active)
same,IC50,cells [5],2.28 µM (active)
Cn1ccnc1SCc1cn2cc(Br)ccc2n1,EC50,[6],38.1 µM (active)
same,EC50,[7],7.92 µM (active)
same,EC50,[8],7.22 µM (inconclusive)
same,EC50,HT-1080,> 50 µM (not active)
Cc1nccc(-c2ccc(-n3c(C)ccc3C)cc2)n1,IC50,[9],> 100 µM (active)
O=C(CCc1nc(-c2cccs2)no1)Nc1cnc2ccccc2c1,IC50,[9],> 100 µM (active)
CNC(=O)c1c(NC(=O)c2nc3ccccc3s2)sc2c1CCC2,IC50,Estrogen receptor beta [1],> 50 µM (not active)
same,IC50,Estrogen receptor beta [2],< 0.023 µM (not active)
CC1CCCC(NC(=O)NC(=O)CCl)C1C (centres undefined),IC50,[3],1.02 µM (active)
same,CC50,[10],10.4 µM (active)
same,AC50,[11],12.4 µM (active)
same,AC50,[12],23.2 µM (active)
same,EC50,Protein RecA,6.19 µM (active)
CCc1c(C)c(C#N)c2nc3ccccc3n2c1NCCN(C)C,EC50,[13],< 0.1 µM (active)
same,EC50,[14],> 30 µM (not active)
same,EC50,cells [15],0.014 µM (active)
Cc1cc(=O)oc2c1ccc1oc(/C(=N/O)c3ccccc3)c(C)c12,CC50,[4],< 0.1 µM (active)
same,CC50,Vero,18.1 µM (active)
same,IC50,[16],24.5 µM (active)
same,EC50,[17],> 53 µM (inactive)
same,IC50,cells [5],18.3 µM (active)
CCOc1ccc2nc(/N=C/c3nc(-c4ccc(Br)cc4)oc3O)sc2c1,EC50,[18],0.16 µM (active)
same,EC50,[17],> 53 µM (inactive)
